In patent US20230365533A1, “BICYCLOHEPTANE PYRROLIDINE OREXIN RECEPTOR AGONISTS” (MERCK SHARP & DOHME CORP., priority 2021, published 2023):

Biological target: T1, human OX2R (Homo sapiens, UniProt O43614)
T1 construct: expressed in transfected cells; host or cells: CHO (Chinese hamster ovary) cells, grown under G418 selection
T1 sequence (O43614 1-444): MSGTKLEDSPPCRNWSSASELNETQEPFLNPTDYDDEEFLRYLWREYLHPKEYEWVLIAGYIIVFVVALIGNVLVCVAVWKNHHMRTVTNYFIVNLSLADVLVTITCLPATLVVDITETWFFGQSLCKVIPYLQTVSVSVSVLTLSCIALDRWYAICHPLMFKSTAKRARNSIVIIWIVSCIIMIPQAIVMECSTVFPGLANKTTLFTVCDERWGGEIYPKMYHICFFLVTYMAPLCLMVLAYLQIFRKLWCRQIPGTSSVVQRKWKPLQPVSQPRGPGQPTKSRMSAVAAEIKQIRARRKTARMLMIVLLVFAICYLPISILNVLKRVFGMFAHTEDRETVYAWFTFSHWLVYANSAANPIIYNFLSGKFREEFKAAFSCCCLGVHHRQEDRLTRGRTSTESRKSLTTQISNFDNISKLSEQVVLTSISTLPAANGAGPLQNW
Assay: IPOne (IP-1) orexin receptor agonist assay in CHO cells expressing human OX2R
Type: cell-based
Details: CHO, percent of mean max effect of a reference compound at 1 uM with 100% activity vs Orexin A, human OX2R
From the text: The utility of the compounds in accordance with the present invention as orexin receptor OX1R and/or OX2R agonists may be readily determined without undue experimentation by methodology well known in the art. Both the OX1R and/or OX2R G-coupled protein receptors (GPCRs) couple through the Gaq signaling pathway, which ultimately promotes calcium mobilization via inositol triphosphate (IP3) production. The half-life of IP-3 is relatively short, being rapidly metabolized to inositol monophosphate (IP-1), which can be readily detected using a commercially available assay kit (IP-One; Cisbio; cat #621PAPEC) coupled with a cell line expressing the target receptor(s) of interest. The utility of the compounds in accordance with the present invention as orexin receptor OX1R and/or OX2R agonists may be determined utilizing this assay.
In a typical experiment, the OX1 and OX2 receptor agonist activity is determined in accordance with the following general experimental method. Chinese hamster ovary (CHO) cells expressing human OX1R and/or the human OX2R were grown in Iscove's modified DMEM containing glutaMAX™, 1% G418, 100 U/mL penicillin, 100 μg/mL streptomycin and 10% heat-inactivated qualified fetal bovine serum (FBS). The OX2R cells were seeded at 10,000 cells/well/50 μL and the OX1R cells were seeded at 20,000 cells/well/50 μL into 384-well white tissue culture plates (Greiner; cat #781080). All cell/media reagents were from GIBCO-Invitrogen Corp. The seeded cell plate(s) were incubated at 37° C. with 5% CO2 and 85% humidity for 20-24 hours. On the day of the assay, assay-ready compound plates were prepared using an acoustic liquid handler (ECHO; Labcyte), which dispensed sufficient volume of test compound stock (10 mM in DMSO) or 100% DMSO to prepare 10 point, ½-log dilutions in a final volume of 202.5 nL/well in all test wells of a 384-well diamond plate (Labcyte). Following completion of assay-ready plates, importantly, the next three steps were performed with minimal delay: 1) 20 μl of 1×stimulation buffer was added to the compound plate using a Multidrop Combi (small cassette, Thermo Fisher Scientific cat #24073290); 2) culture medium was removed from the cell plate using the Bluewasher plate washer (gentle spin; BlueCatBio); 3) 14 μl of compound/stimulation buffer mixture was added to the cell plate using a Bravo liquid handler (Agilent) prior to incubating cell plates at 37° C. with 5% CO2 and 85% humidity for 1 or 2 hours (OX1R and OX2R, respectively). During this incubation, IP-one detection reagents were prepared (38:1:1 lysis buffer:D2:AB-cryptate reagents). Six μL of mixed detection reagents were added to the cell plate using a Multidrop Combi (small cassette, Thermo Fisher Scientific cat #24073290) and incubated 60 minutes at room temperature in the dark. Fluorescence signal was detected using an Envision plate reader (Perkin Elmer) [LANCE/DELFIA Dual Enh (Em: APC 665; Ex: Cy5 620)].
For each compound, data were fit to a four parameter logistic fit (ActivityBase software) and the EC50 was reported as the inflection point of the resulting curve. Percent effect for each test compound was determined as the percentage of sample raw value/mean max effect, where the mean max effect was derived from the mean raw value of 32 control wells per assay plate (using Orexin A (cat #003-30) at 1 μM for human OX1R and a reference compound at 1 uM with 100% activity previously established by comparison to Orexin A for human OX2R). The intrinsic orexin receptor agonist activity of a compound which may be used in the present invention may be determined by these assays.

Row | Emax [%] | Compound
1 | 100 | COC(=O)N1[C@H](C)C[C@H](NS(=O)(=O)N(C)C)[C@@H]1COC1CCC2(c3ncc(F)cn3)CC2C1 (stereo partly drawn) [Example 169, methyl (2R,3S,5R)-3-((N,N-dimethylsulfamoyl)amino)-2-(((6-(5-fluoropyrimidin-2-yl)bicyclo[4.1.0]heptan-3-yl)oxy)methyl)-5-methylpyrrolidine-1-carboxylate]
2 | 74.4 | COC(=O)N1[C@H](C)C[C@H](NS(=O)(=O)N(C)C)[C@@H]1COC1CCC2(c3ncc(F)cn3)CC2C1 (single isomer, unassigned) [Example 167]

Same assay, conditions: IPOne assay, CHO cells expressing human OX2R, 2 hours incubation; read-out: hoX2R_IP IC50

Row | IC50 [nM] | Compound
3 | 1.4 | COC(=O)N1[C@H](C)C[C@H](NS(C)(=O)=O)[C@@H]1CO[C@H]1CC[C@@]2(c3ncc(F)cn3)C[C@H]2C1 (single isomer, unassigned) [Example 137]
4 | 1.4 | C[C@@H]1C[C@H](NS(C)(=O)=O)[C@H](CO[C@H]2CC[C@@]3(c4ncc(F)cn4)C[C@H]3C2)N1C(=O)OCCC(F)F [Example 52, 3,3-difluoropropyl (2R,3S,5R)-2-((((1S,3S,6R)-6-(5-fluoropyrimidin-2-yl)bicyclo[4.1.0]heptan-3-yl)oxy)methyl)-5-methyl-3-(methylsulfonamido)pyrrolidine-1-carboxylate]
5 | 2.8 | COC(=O)N1[C@H](C)C[C@H](NS(C)(=O)=O)[C@@H]1CO[C@H]1CC[C@@]2(c3ncc(Cl)cn3)C[C@H]2C1 (single isomer, unassigned) [Example 142]
6 | 24.5 | COC(=O)N1[C@H](C)C[C@H](NS(C)(=O)=O)[C@@H]1CO[C@@H]1CC[C@]2(c3ncc(F)cn3)C[C@@H]2C1 (single isomer, unassigned) [Example 136]
7 | 0.6 | C[C@@H]1C[C@H](NS(C)(=O)=O)[C@H](CO[C@H]2CC[C@@]3(c4ncc(F)cn4)C[C@H]3C2)N1C(=O)OCC(F)F [Example 66, 2,2-difluoroethyl (2R,3S,5R)-2-((((1S,3S,6R)-6-(5-fluoropyrimidin-2-yl)bicyclo[4.1.0]heptan-3-yl)oxy)methyl)-5-methyl-3-(methylsulfonamido)pyrrolidine-1-carboxylate]
8 | 575 | COC(=O)N1[C@H](C)C[C@H](NS(=O)(=O)N(C)C)[C@@H]1COC1CCC2(c3ncc(F)cn3)CC2C1 (single isomer, unassigned) [Example 167]
9 | 6 | C[C@@H]1C[C@H](NS(C)(=O)=O)[C@H](CO[C@H]2CC[C@@]3(c4ncc(F)cn4)C[C@H]3C2)N1C(=O)OCC(F)C1CCC1 (stereo partly drawn) [Example 54, 2-cyclobutyl-2-fluoroethyl (2R,3S,5R)-2-((((1S,3S,6R)-6-(5-fluoropyrimidin-2-yl)bicyclo[4.1.0]heptan-3-yl)oxy)methyl)-5-methyl-3-(methylsulfonamido)pyrrolidine-1-carboxylate]
10 | 3.5 | CC(C)OC(=O)N1[C@H](C)C[C@H](NS(=O)(=O)C(F)F)[C@@H]1COC1CCC2(c3ncc(F)cn3)CC2C1 (stereo partly drawn) [Example 109, isopropyl (2R,3S,5R)-3-((difluoromethyl)sulfonamido)-2-(((6-(5-fluoropyrimidin-2-yl)bicyclo[4.1.0]heptan-3-yl)oxy)methyl)-5-methylpyrrolidine-1-carboxylate]
11 | 2.3 | C[C@@H]1C[C@H](NS(C)(=O)=O)[C@H](CO[C@H]2CC[C@@]3(c4ncc(F)cn4)C[C@H]3C2)N1C(=O)OCC1(F)CC1 [Example 61, (1-fluorocyclopropyl)methyl (2R,3S,5R)-2-((((1S,3S,6R)-6-(5-fluoropyrimidin-2-yl)bicyclo[4.1.0]heptan-3-yl)oxy)methyl)-5-methyl-3-(methylsulfonamido)pyrrolidine-1-carboxylate]
12 | 1.4 | CC(C)OC(=O)N1[C@H](C(F)F)C[C@H](NS(C)(=O)=O)[C@@H]1CO[C@H]1CC[C@@]2(c3ncc(F)cn3)C[C@H]2C1 [Example 119, isopropyl (2R,3S,5S)-5-(difluoromethyl)-2-((((1S,3S,6R)-6-(5-fluoropyrimidin-2-yl)bicyclo[4.1.0]heptan-3-yl)oxy)methyl)-3-(methylsulfonamido)pyrrolidine-1-carboxylate]
13 | 0.93 | CCS(=O)(=O)N[C@H]1C[C@@H](C)N(C(=O)OC)[C@H]1CO[C@H]1CC[C@@]2(c3ncc(F)cn3)C[C@H]2C1 [Example 36, methyl (2R,3S,5R)-3-(ethylsulfonamido)-2-((((1S,3S,6R)-6-(5-fluoropyrimidin-2-yl)bicyclo[4.1.0]heptan-3-yl)oxy)methyl)-5-methylpyrrolidine-1-carboxylate]
14 | 22.6 | COC(=O)N1[C@@H]2CCC[C@@H]2[C@H](NS(C)(=O)=O)[C@@H]1COC1CCC2(c3ncccn3)CC2C1 (stereo partly drawn) [Example 175, methyl (2R,3S,3aS,6aR)-3-(methylsulfonamido)-2-(((6-(pyrimidin-2-yl)bicyclo[4.1.0]heptan-3-yl)oxy)methyl)hexahydrocyclopenta[b]pyrrole-1(2H)-carboxylate]
15 | 3 | COC(=O)N1[C@H](C)C[C@H](NS(=O)(=O)C(F)(F)F)[C@@H]1CO[C@H]1CC[C@@]2(c3ncc(F)cn3)C[C@H]2C1 [Example 31, methyl (2R,3S,5R)-2-((((1S,3S,6R)-6-(5-fluoropyrimidin-2-yl)bicyclo[4.1.0]heptan-3-yl)oxy)methyl)-5-methyl-3-((trifluoromethyl)sulfonamido)pyrrolidine-1-carboxylate]
16 | 1620 | COC(=O)N1CC[C@H](NS(C)(=O)=O)[C@@H]1COC1CCC2(c3ncccn3)CC2C1 (stereo partly drawn) [Example 185, methyl (2R,3S)-3-(methylsulfonamido)-2-(((6-(pyrimidin-2-yl)bicyclo[4.1.0]heptan-3-yl)oxy)methyl)pyrrolidine-1-carboxylate]
17 | 46.5 | COC(=O)N1[C@H](C)C[C@H](NS(=O)(=O)CC(C)C)[C@@H]1CO[C@H]1CC[C@@]2(c3ncc(F)cn3)C[C@H]2C1 [Example 35, methyl (2R,3S,5R)-2-((((1S,3S,6R)-6-(5-fluoropyrimidin-2-yl)bicyclo[4.1.0]heptan-3-yl)oxy)methyl)-5-methyl-3-((2-methylpropyl)sulfonamido)pyrrolidine-1-carboxylate]
18 | 7.5 | CC(C)OC(=O)N1[C@H](C)C[C@H](NS(=O)(=O)N(C)C)[C@@H]1COC1CCC2(c3ncccn3)CC2C1 (stereo partly drawn) [Example 174, isopropyl (2R,3S,5R)-3-((N,N-dimethylsulfamoyl)amino)-5-methyl-2-(((6-(pyrimidin-2-yl)bicyclo[4.1.0]heptan-3-yl)oxy)methyl)pyrrolidine-1-carboxylate]
19 | 736 | COC(=O)N1[C@H](C)C[C@H](NS(C)(=O)=O)[C@@H]1COC1CCC2(c3ncc(F)c(C)n3)CC2C1 (stereo partly drawn) [Example 77, methyl (2R,3S,5R)-2-(((6-(5-fluoro-4-methylpyrimidin-2-yl)bicyclo[4.1.0]heptan-3-yl)oxy)methyl)-5-methyl-3-(methylsulfonamido)pyrrolidine-1-carboxylate]
20 | 9.7 | COC[C@@H]1C[C@H](NS(C)(=O)=O)[C@H](CO[C@H]2CC[C@@]3(c4ncc(F)cn4)C[C@H]3C2)N1C(=O)OC [Example 132, methyl (2R,3S,5S)-2-((((1S,3S,6R)-6-(5-fluoropyrimidin-2-yl)bicyclo[4.1.0]heptan-3-yl)oxy)methyl)-5-(methoxymethyl)-3-(methylsulfonamido)pyrrolidine-1-carboxylate]
